In publication PMC7440915, “Discovery of surrogate agonists for visceral fat Treg cells that modulate metabolic indices in vivo” (eLife, 2020):
Where no end group is shown, it is not given here.

Tested on: vTreg53 Treg cells
Assay: Proliferation of transferred vTreg53 Treg cells in spleen after immunization
Type: in vivo, mouse
Details: CFA/Fat1562, 200 µg s.c., three days
From the text: Figure 4. SPs induce proliferation and activation of vTreg53 Treg cells in vitro and in vivo. (A–D) Proliferation and activation of vTreg53 Treg cells by different concentrations of SPs for 3 days in vitro (n = 3). (A) Representative flow cytometric plot of cell division. (B) Summary of cell proliferation. (C) Mean flourescence intensity (MFI) of CD44 staining in clonotype^+ Treg cells. (D) MFI of CD62L staining in clonotype^+ Treg cells. (E) Proliferation of transferred CD45.2^+ vTreg53 Treg cells in the spleen of CD45.1^+ B6 recipient mice immunized s.c. with CFA or CFA/Fat1562 at day 3 (n = 3). […]
To assess early Treg proliferation following peptide stimulation in vivo, 0.4 million Treg cells were sorted from pooled Spl and LNs of 6-8wk-old male CD45.2^+ Tg^+ Foxp3-GFP^KI/y mice by Moflo, labeled by the CellTrace Violet dye (ThermoFisher Scientific), and were i.v.-injected into 6-8wk old male B6.CD45.1^+ mice. […] Proliferation of clonotype^+ Tregs in the spleen was determined three days later. […] Six weeks later, the recipient mice were immunized with 200 µg CFA/peptides s.c. on the lower back, and one week later were boosted with 100 μg IFA/peptides i.p. After another week, clonotype^+ CD45.2^+ Treg cells from the Spl/LNs or VAT of recipient mice were analyzed by flow cytometry and double-sorted for ultra-low-input RNA-seq. […]

TMYKNPRPMAATG [Fat1562]
proliferation of transferred clonotype^+ Treg cells in spleen: robust proliferation
